Among the data in ChEMBL document CHEMBL1147818, “1,1'-Xylyl bis-1,4,8,11-tetraaza cyclotetradecane: a new potential copper chelator agent for neuroprotection in Alzheimer's disease. Its comparative effects with clioquinol on rat brain copper distribution” (Bioorg Med Chem Lett, 2006) are Activity and Ct values, retold here.

Data set [1] deals with Rattus norvegicus. The experiment in a line: Decrease in copper concentration in Wistar rat CSF at 5 mg/kg, iv after 1 hr relative to control. The format is functional. On the set-up: scale not given: the % may be the effect or the level left.
Data set [2] concerns Rattus norvegicus. Put plainly: Distribution of copper per 100 ml of Wistar rat blood at 5 mg/kg, iv after 1 hr. It counts as ADME, organism-based. Also on record: dose 5 mg/kg, route intravenous. Particulars: in vivo.

Molecules are shown by their SMILES.

Regarding `Oc1c(I)cc(Cl)c2cccnc12` [CLIOQUINOL], the Activity in data set [1] is listed as 70%. In data set [2], this molecule returned a Ct of 126 µg.

Molecule `CC(C)(S)[C@@H](N)C(=O)O` [PENICILLAMINE] came in with a Ct in data set [2] of 135 µg.

In data set [1], `c1cc(CN2CCCNCCNCCCNCC2)ccc1CN1CCCNCCNCCCNCC1` [PLERIXAFOR] registered an Activity of 70%. Further, the Ct in data set [2] was found to be 142 µg.
